From ChEMBL document CHEMBL1201862, “PubChem BioAssay data set” (2004)
Active and inactive are the calls of the source.

Tests used:
[1] = viability loss in MITF-independent A375 cells – cell-based, CellTiter-Glo luminescence, dry powder, set 7, counter-screen for MITF inhibitor project, dose response (AID 624490); format: functional; details: A-375
[2] = target: T1, Microphthalmia-associated transcription factor (Homo sapiens, UniProt O75030); test: reducers of TRPM1 reporter luminescence, concentration series – cell-based, SK-MEL-5, cherry-picked, set 3, MITF inhibitor project, dose response (AID 493073); format: functional;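 also: SK-MEL-5 melanoma cells with luciferase driven by the MITF target TRPM1 promoter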
T1 sequence (O75030 whole entry): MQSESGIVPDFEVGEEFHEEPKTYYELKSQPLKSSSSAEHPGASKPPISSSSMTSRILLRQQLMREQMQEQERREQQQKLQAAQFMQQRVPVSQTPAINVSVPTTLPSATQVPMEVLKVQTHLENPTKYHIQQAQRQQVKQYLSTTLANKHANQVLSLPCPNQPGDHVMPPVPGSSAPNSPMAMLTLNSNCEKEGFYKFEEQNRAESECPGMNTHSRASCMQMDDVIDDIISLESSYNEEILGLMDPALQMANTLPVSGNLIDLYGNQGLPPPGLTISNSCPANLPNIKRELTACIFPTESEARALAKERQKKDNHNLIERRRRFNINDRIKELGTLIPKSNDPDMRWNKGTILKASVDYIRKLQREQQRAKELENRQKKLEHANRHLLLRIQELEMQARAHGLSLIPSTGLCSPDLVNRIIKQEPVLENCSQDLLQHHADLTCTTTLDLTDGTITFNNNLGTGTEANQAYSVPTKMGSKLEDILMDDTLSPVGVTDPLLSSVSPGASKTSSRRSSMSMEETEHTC

[3] = cytotoxicity in melanoma parental cells – cell-based, CellTiter-Glo, dry powder, set 6, MITF inhibitor project, dose response (AID 624429); format: functional; details: SK-MEL-5
[4] = target: Intestinal-type alkaline phosphatase (Mus musculus, UniProt P24822); test: mouse intestinal alkaline phosphatase activators, dose response, biochemical, luminescence, uHTS hits (AID 488783); format: functional
Procathepsin L = Procathepsin L (Homo sapiens, UniProt P07711)
[5] = viability loss in THP-1 monocytes – THP-1 cells, cytotoxicity control for Vif-APOBEC3G degradation inhibitor project, dose response (AID 1117359); format: functional; details: THP-1
[6] = target: T2, Heat shock factor protein 1 (Mus musculus, UniProt P38532); test: enhancement of HSF1-driven luciferase signal – cell-based, NIH3T3, luminescence, dose retest, confirmation (AID 435004); format: functional;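 also: stress induced by proteasome inhibitor MG132 added 30 min after compound; luciferase reporter driven by HSF1 response element in NIH3T3 cells; actives raise luminescence as potentiators of the MG132 stress response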
T2 sequence (P38532 whole entry): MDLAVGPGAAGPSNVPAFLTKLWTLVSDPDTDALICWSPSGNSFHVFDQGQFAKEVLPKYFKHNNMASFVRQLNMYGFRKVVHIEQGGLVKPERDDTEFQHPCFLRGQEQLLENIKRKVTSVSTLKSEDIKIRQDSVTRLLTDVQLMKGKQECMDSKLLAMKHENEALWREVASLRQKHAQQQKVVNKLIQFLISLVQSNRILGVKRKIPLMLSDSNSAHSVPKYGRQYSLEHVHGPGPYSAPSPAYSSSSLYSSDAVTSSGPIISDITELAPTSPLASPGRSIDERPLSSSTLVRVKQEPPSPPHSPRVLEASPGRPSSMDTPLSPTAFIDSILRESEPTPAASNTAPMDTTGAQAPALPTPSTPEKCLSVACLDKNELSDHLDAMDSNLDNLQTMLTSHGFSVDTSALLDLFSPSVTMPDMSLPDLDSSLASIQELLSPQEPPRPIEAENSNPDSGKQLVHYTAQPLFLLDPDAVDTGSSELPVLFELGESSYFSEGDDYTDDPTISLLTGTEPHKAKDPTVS

Orexin receptor type 2 [7] = target: T3, Orexin receptor type 2 (Homo sapiens, UniProt O43614); test: Counterscreen assay for antagonists of the orexin 1 receptor (OX1R; HCRTR1): Fluorescence-based cell-based dose response assay for antagonists of the orexin 2 receptor (OX2R; HCRTR2), run by assay provider.; format: functional
T3 sequence (O43614 whole entry): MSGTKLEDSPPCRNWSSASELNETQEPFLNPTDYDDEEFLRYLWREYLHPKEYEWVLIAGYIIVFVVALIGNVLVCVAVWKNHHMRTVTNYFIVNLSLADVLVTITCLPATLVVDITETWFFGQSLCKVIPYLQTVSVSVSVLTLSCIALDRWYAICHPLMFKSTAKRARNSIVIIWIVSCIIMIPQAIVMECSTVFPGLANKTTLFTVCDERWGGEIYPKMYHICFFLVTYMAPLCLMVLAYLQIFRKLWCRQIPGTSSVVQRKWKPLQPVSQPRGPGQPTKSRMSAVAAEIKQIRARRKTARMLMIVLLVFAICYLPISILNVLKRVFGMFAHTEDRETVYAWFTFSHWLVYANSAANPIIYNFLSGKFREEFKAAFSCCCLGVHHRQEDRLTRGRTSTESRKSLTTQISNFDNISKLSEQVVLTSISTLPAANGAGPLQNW

Orexin receptor type 2 [8] = target: T3, Orexin receptor type 2; test: Counterscreen assay for antagonists of the orexin 1 receptor (OX1R; HCRTR1): Homogeneous Time Resolved Fluorescence (HTRF)-based cell-based dose response assay for antagonists of the orexin 2 receptor (OX2R; HCRTR2), run by assay provider.; format: functional
[9] = target: Mitogen-activated protein kinase kinase kinase kinase 5 (Homo sapiens, UniProt Q9Y4K4); format: functional;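 also: measured as one member of a kinome-spanning kinase panel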
Mitogen-activated protein kinase kinase kinase kinase 5, sequence (Q9Y4K4 whole entry): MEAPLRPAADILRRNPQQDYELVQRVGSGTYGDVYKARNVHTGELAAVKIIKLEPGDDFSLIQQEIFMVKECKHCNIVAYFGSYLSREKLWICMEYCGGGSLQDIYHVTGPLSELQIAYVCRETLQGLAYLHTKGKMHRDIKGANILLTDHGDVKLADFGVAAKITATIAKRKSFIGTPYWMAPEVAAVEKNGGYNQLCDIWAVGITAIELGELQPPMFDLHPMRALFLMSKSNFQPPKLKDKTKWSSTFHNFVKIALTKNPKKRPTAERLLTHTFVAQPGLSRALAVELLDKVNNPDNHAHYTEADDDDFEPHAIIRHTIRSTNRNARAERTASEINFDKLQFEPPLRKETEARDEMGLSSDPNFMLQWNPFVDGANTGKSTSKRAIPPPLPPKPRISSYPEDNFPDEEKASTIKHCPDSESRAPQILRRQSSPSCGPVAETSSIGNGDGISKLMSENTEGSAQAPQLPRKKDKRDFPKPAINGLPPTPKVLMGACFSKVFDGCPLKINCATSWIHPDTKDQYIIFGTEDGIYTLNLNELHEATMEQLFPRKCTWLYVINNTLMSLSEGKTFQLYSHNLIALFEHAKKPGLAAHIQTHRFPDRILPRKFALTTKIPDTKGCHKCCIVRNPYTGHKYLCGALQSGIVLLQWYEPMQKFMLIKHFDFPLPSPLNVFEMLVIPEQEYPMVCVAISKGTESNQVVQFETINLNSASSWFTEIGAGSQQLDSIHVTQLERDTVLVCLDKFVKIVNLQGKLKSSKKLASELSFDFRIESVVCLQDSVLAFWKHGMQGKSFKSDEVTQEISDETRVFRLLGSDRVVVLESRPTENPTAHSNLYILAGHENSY

[10] = target: Mast/stem cell growth factor receptor Kit (Homo sapiens, UniProt P10721); format: functional;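 also: KIT entry within a kinase panel assay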
[11] = target: Serine/threonine-protein kinase DCLK1 (Homo sapiens, UniProt O15075); format: functional;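 also: affinity for DCLK1 (listed as DCAMKL1) measured as one member of a kinome-wide kinase profiling panel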
[12] = target: Calcium/calmodulin-dependent protein kinase type 1 (Homo sapiens, UniProt Q14012); format: functional
[13] = target: Tyrosine-protein kinase Srms (Homo sapiens, UniProt Q9H3Y6); format: functional;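 also: SRMS measured as one member of a kinome-wide kinase profiling panel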
Insulin receptor = Insulin receptor (Homo sapiens, UniProt P06213); format: functional;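 also: insulin receptor kinase tested as one member of a kinome-wide kinase panel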
Insulin receptor, sequence (P06213 28-758 limits assumed): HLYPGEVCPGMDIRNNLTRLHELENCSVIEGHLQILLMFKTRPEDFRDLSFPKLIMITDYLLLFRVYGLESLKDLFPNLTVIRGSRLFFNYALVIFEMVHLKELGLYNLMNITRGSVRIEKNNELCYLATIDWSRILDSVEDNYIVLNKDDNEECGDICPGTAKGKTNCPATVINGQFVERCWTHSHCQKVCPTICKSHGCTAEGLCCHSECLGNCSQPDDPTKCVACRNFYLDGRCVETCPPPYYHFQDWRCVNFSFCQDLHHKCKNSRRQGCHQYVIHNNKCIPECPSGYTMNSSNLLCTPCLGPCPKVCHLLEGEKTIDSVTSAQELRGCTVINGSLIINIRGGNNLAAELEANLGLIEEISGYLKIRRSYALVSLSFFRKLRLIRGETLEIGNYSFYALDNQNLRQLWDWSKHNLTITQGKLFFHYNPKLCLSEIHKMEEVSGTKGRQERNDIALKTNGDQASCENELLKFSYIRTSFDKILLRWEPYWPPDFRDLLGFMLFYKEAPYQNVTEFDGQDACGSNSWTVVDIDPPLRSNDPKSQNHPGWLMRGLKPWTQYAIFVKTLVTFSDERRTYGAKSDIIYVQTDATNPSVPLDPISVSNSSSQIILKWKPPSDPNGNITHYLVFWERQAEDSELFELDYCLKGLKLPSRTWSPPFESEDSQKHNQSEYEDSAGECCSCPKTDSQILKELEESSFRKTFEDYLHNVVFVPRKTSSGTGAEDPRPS
Insulin receptor, sequence (P06213 763-1382 limits assumed): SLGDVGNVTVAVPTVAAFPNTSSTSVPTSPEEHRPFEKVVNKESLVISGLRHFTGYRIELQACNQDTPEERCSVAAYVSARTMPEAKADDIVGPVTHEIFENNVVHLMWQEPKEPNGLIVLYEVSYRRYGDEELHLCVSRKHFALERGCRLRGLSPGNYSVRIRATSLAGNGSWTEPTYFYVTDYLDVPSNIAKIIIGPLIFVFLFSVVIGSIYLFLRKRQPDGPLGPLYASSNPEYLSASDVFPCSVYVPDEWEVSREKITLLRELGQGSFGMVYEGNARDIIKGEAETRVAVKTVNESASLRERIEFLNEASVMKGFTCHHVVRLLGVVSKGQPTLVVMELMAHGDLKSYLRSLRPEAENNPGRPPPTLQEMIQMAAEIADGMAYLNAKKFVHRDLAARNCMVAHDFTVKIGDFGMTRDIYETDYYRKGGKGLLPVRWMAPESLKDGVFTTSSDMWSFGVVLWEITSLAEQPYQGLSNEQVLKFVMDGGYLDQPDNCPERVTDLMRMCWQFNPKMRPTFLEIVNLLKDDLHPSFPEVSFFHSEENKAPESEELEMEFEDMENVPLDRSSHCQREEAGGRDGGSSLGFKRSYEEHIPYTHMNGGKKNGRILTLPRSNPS

[14] = target: Mitogen-activated protein kinase 13 (Homo sapiens, UniProt O15264); format: functional
[15] = target: Mitogen-activated protein kinase 9 (Homo sapiens, UniProt P45984); format: functional;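 also: value from a kinome panel profiling assay, MAPK9 panel entry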
Mitogen-activated protein kinase 9, sequence (P45984 whole entry): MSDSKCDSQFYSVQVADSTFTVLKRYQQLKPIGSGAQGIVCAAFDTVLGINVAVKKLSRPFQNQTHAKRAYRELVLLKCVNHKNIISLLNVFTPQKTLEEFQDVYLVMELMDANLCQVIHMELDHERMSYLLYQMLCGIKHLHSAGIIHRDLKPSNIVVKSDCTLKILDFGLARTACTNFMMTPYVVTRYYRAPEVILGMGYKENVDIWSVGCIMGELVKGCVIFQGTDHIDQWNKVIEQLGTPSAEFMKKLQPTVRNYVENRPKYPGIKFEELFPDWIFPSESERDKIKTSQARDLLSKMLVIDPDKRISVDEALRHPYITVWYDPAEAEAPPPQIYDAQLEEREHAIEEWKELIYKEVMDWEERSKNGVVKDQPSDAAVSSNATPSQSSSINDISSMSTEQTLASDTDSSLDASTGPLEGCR

[16] = target: Serine/threonine-protein kinase TBK1 (Homo sapiens, UniProt Q9UHD2); test: Navigating the Kinome. Panel member name: TBK1; format: functional
Serine/threonine-protein kinase TBK1, sequence (Q9UHD2 whole entry): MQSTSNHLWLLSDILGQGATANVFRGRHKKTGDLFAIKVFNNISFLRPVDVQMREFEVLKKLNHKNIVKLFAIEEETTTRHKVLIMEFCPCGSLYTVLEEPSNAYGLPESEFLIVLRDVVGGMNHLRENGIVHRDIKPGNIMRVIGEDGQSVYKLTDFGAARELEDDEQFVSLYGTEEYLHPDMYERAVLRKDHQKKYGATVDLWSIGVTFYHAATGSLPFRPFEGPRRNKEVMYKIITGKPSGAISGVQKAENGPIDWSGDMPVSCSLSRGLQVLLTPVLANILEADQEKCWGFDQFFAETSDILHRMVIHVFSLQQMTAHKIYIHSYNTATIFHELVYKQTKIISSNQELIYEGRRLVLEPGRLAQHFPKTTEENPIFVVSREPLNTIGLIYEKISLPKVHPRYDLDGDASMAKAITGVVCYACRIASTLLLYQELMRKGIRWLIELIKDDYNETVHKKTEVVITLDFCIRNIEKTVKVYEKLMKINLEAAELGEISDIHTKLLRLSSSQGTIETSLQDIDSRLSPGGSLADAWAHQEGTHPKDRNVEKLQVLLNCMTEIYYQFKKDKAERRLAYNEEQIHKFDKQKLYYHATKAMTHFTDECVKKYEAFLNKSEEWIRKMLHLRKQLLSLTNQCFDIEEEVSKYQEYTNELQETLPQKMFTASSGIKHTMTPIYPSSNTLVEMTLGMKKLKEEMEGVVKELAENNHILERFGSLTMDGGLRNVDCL

[17] = target: Serine/threonine-protein kinase pim-3 (Homo sapiens, UniProt Q86V86); format: functional;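 also: value obtained as one member of a broad kinase panel profiling effort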
[18] = target: 3-phosphoinositide-dependent protein kinase 1 (Homo sapiens, UniProt O15530); format: functional;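 also: value comes from the Navigating the Kinome panel, PDPK1 member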
3-phosphoinositide-dependent protein kinase 1, sequence (O15530 whole entry): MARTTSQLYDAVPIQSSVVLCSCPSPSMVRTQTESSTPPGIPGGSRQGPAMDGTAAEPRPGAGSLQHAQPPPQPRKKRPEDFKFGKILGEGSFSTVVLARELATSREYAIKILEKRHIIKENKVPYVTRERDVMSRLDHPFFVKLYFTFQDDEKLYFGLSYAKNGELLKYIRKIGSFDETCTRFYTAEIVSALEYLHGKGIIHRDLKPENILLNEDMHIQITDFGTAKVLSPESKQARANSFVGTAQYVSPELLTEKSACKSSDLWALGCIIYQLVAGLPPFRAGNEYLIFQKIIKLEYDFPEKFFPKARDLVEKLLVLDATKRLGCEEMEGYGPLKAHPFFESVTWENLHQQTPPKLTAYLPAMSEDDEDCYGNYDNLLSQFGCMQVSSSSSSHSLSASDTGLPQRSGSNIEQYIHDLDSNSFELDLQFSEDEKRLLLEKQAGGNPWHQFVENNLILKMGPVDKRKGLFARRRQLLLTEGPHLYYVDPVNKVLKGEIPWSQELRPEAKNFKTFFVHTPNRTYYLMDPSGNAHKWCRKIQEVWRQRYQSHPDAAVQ

[19] = target: Serine/threonine-protein kinase Chk1 (Homo sapiens, UniProt O14757); format: functional;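 also: measured as one member of a kinome-wide kinase profiling panel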
Serine/threonine-protein kinase Chk1, sequence (O14757 whole entry): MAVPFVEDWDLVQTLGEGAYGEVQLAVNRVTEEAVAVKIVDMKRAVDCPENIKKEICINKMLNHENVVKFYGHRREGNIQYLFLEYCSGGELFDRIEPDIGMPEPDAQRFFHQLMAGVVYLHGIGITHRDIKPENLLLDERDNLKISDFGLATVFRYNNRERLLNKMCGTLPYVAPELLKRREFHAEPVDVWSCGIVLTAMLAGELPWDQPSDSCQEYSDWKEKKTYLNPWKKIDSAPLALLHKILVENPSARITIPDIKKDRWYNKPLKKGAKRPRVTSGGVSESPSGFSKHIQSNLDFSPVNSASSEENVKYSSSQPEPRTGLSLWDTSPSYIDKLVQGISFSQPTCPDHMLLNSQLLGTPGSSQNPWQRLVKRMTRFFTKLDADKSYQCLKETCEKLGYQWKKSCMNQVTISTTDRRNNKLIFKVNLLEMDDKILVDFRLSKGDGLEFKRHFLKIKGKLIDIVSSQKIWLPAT

[20] = target: RAC-alpha serine/threonine-protein kinase (Homo sapiens, UniProt P31749); format: functional;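 also: AKT1 affinity measured as one member of a kinome-wide kinase profiling panel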
RAC-alpha serine/threonine-protein kinase, sequence (P31749 whole entry): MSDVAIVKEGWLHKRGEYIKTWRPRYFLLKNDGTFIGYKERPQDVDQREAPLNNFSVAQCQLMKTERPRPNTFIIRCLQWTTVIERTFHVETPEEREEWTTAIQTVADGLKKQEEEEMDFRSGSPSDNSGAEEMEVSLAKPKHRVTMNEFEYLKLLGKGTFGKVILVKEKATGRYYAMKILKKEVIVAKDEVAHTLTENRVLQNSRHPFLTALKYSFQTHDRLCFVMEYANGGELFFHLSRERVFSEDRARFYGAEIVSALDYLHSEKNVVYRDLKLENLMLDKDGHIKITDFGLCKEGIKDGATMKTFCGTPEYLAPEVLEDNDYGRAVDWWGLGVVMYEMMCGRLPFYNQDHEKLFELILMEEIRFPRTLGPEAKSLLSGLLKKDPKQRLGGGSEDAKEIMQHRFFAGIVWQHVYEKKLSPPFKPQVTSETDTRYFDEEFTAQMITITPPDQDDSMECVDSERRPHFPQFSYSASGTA

C=CCNC1=C(Cl)C(=O)c2ccccc2C1=O
AC50 [1]: 53.5 µM (active)
AC50 [2]: 4.06 µM (active)
AC50 [3]: 3.82 µM (active)

CS(=O)(=O)c1ccc2c(c1)SC1=NC(=O)/C(=C/c3ccc(O)c(O)c3)C(=N)N12
EC50 [4]: 6.35 µM (active)
IC50 (Procathepsin L): > 59.6 µM (not active)

CCOC(=O)C(C(=O)OCC)c1cc(Br)c2noc3c2c1C(=O)c1ccccc1-3
CC50 [5]: 19.2 µM (active)
EC50 [6]: > 260 µM (inconclusive)

CN(C)c1ccc(-c2nnc(-c3cccs3)o2)cc1
IC50 (Orexin receptor type 2 [7]): > 88.8 µM (inactive)
IC50 (Orexin receptor type 2 [8]): > 50 µM (inactive)

COc1ccc(C(=O)Nc2n[nH]c3ccc(-c4cn(Cc5ccccc5)nn4)cc23)cc1OC
Ki [9]: 0.501 µM (active)
Ki [10]: > 1.26 µM (inactive)
Ki [11]: 5.01 µM (active)
Ki [12]: > 1.58 µM (inactive)
Ki [13]: > 1.58 µM (inactive)
Ki (Insulin receptor): 1.26 µM (active)
Ki [14]: 0.501 µM (active)
Ki [15]: 0.251 µM (active)
Ki [16]: 0.0251 µM (active)
Ki [17]: 1.26 µM (active)
Ki [18]: 1 µM (active)
Ki [19]: 3.98 µM (active)
Ki [20]: 6.31 µM (active)
